# Assay results published in patent US20260234150A1, “COMPOUND FOR INHIBITING NLRP3, PREPARATION METHOD, AND USE” (DOVETREE MEDICINES UNUS, INC., priority 2023, published 2026).
# How the values were obtained:
# [1] = Liver microsome metabolic stability, human; type: in vitro ADME; details: human liver microsomes, 45 min incubation
# Protocol: Purpose: This experiment investigates the metabolic stability of the compound in liver microsomes of different species such as humans, mice and rats, and the residual content of the test compound after incubation with liver microsomes of different species such as humans, mice and rats.
# Preparation of 500 μM solution of target compound and positive control: 5 μL of each 10 mM stock solution was taken, added to 95 μL acetonitrile, and mixed for 30 s;
# Preparation of 6 mM NADPH solution: 100 mM Stock aliquot liquid was diluted with Mg-Mg —K-Buffer.
# 2.1.1 Liver microsome solution: 18.75 μL of 20 mg/mL HLM, RLM, MLM, DLM, MOLM (final concentration: 0.5 mg/ml) were taken and placed them in each well of a 96-well plate;
# 2.1.2 1.5 μL of 500 μM solution of each compound was added respectively;
# 2.1.3 479.8 μL of phosphate buffer was taken, then added to each compound well, and mixed at 1000 rpm in an oscillating mixer for 10 s.
# 30 μL of the above samples were taken and aliquoted to a new 96-well plates respectively (including NADPH group, n=2, and no NADPH group at 0 and 45 min, n=1), marked as 0, 5, 15, 30 and 45 min; […]
# The slope was calculated based on the LN value of the compound concentration percentage and time as the coordinate axis, and the residual content of the compound after incubation with liver microsomes was calculated based on the slope and formula. […]
# CYP2C19 = molecular target: T1, CYP2C19 (Homo sapiens, UniProt P33261); assay: CYP450 enzyme inhibition in human liver microsomes, CYP2C19; type: in vitro ADME; details: substrate Mephenytoin, read-out: Inhibitory activity IC50 (μM) CYP2C19
# T1 construct: (CYP2C19 uses 0.2 mg/mL liver microsome); tissue BioIVT IHG; host or cells: human liver microsomes
# T1 sequence (P33261 whole entry): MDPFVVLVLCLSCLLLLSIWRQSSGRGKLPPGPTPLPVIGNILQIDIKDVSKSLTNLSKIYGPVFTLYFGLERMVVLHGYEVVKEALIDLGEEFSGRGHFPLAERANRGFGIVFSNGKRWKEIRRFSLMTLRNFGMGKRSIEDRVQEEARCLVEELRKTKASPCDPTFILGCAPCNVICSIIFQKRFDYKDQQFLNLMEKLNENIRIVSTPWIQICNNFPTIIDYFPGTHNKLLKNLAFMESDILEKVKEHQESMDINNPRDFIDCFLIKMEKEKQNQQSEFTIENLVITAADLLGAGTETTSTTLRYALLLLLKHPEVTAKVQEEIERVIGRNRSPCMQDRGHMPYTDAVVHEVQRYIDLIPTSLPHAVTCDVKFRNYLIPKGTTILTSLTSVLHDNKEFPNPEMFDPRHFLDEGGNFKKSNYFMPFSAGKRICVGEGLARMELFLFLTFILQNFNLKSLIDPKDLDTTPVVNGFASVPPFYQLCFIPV
# Protocol: This experiment incubates the compound, liver microsomes and different CYP subtype enzyme substrates in a 37° C. water bath to measure the amount of substrate metabolites produced and evaluate the inhibitory effect of the compound of the present disclosure on CYP enzymes based on the IC50 value.
# i. The compound was diluted to 0, 0.02 mM, 0.06 mM, 0.2 mM, 0.6 mM, 2 mM and 6 mM concentrations with DMSO (Aladdin, catalog number: D103273-500 ml).
# ii. The enzyme substrate solutions of each CYP subtype were prepared by phosphate buffer (sigma: V900050-500G).
# iii. Sample incubation. […] After centrifugation at 4000 rpm and 4° C. for 40 min, the supernatant was diluted with pure water according to the response of the substrate metabolites and then detected by UPLC-MS/MS (Sciex, Q-Trap 4500). […]
# The inhibitory effect of the compound on each P450 enzyme in human liver microsomes was calculated as the percentage of reduced metabolite formation compared with the non-inhibitory control (i.e., blank DMSO). The IC50 value for each P450 enzyme in human liver microsomes was calculated using the logarithm of the remaining activity and the inhibitor concentration using Graphpad Prism software. […]
# [2] = tested on: IL-1β secretion of THP-1 cells; assay: Effect of NLRP3 inhibitor on IL-1β secretion of THP-1 cells (AlphaLISA); type: cell-based; details: Homo sapiens; PMA, LPS and Nigericin stimulated THP-1 cells, IL-1β in supernatant; read-out: IC50 (nM), THP-1 cells to detect NLRP3 inhibitors
# Protocol: This experiment used the PerkinElmer AlphaLISA_human_IL1β kit (AL220 C/F). The detection buffer was RPMI-1640+10FBS. AlphaLISA Immunoassay Buffer, AlphaLISA Anti-IL1β Acceptor beads, Streptavidin (SA)-coated Donor beads, and Biotinylated Antibody Anti-IL1β were all included in the kit.
# The density of THP1 cells was adjusted to 4×10^5 cells/mL, PMA (final concentration 50 nM) was added, inoculated into 96-well flat-bottom plates at 200 μL/well, and stimulated overnight at 37° C., 5% CO2 (try to <16h). The next day, the supernatant was discarded, and the flat washed twice with DPBS ([…]/time). Then LPS solution (final concentration of 100 ng/ml) was added at 198 μL/well, incubated at 37° C., 5% CO2 for 3h. 1 μL of the corresponding concentration of compounds was added to each well according to the experimental MAP, incubated at 37° C., 5% CO2 for 1 h. 1 μL Nigericin (final concentration of […]) was added to each well, incubated overnight at 5% CO2 (>18h). On the third day, 5 μL of supernatant was taken, diluted 20 times, and the content of IL-Iβ in the supernatant was detected by Human Interleukin 1 beta (IL1β) Kit. Envision was used to read the AlphaLISA test value of Ex=680/[…]. GraphPad Prism 9.5.0 was used to analyze the data, and the IC50 value of the compound for IL-Iβ antagonism was fitted by four-parameter Logistic.
smiles,measurement,setting,value
CC(=O)N1CCOC[C@H]1CNc1nc2nc(-c3c(C)cc(C(F)(F)F)cc3O)ccc2o1 [Compound 111],"LMS (h)(% rem, 45 min)",[1],93.24 % rem
same,IC50,CYP2C19,> 30 µM
same,IC50,[2],< 50 nM
